# Data published in patent publication US9426996B2, “Use of benzoxaboroles as volatile antimicrobial agents on meats, plants, or plant parts” (AgroFresh Inc., priority 2013, dated 2016).
# Legend:
# Penicillium digitatum = test: in vivo sublimation bioassay on fruit, 10 mg/L (Example 22); details: Orange; 10 mg/L sublimed; three day treatment plus three days at 21° C.
# Protocol: (§1) To assess the in vivo activity of volatile antimicrobial Compound A (FIG. 1) in fruit, a volatile bioassay is developed using apple, pear, orange, strawberry, grape and blueberry. Two apples, 2 oranges, 2 pears, 8 strawberries, 16 grapes or 30 blueberries (per replicate, in duplicate) are placed in a clamshell with the stem end facing up for all fruits except for strawberry (stem end facing downwards). A fresh wound is inoculated with 20 μL 1×10^6 per mL Penicillium expansum spore suspension (apple and pear), 20 μL 1×10^6 per mL Penicillium digitatum spore suspension (orange), and 20 μL (strawberry and grape) or 10 μL (blueberry) of 1×10^6 per mL Botrytis cinerea spore suspension. The clamshells are placed inside a 117 L Rubbermaid storage box (Cat #2244) with lids closed. Compound A, dissolved in acetone, is pipetted onto a cotton strip, where the acetone is allowed to evaporate for five minutes, and then introduced into the container by a sublimation device (copper tube heated to 200° C. with fan flow at 0.5 L/min) to achieve a final headspace concentration of 10 mg/L. The containers are then held for three days at 21° C. After treatment, fruits are held for an additional three days at 21° C., then evaluated for disease incidence (mm diameter of browning or water-soaked lesions) and pathogen sporulation (mm diameter) for apple, pear and orange, as well as Botrytis cinerea disease incidence (%) and severity (0 to 4) for strawberry, grape and blueberry, with results summarized in Table 21.
# Penicillium expansum = test: as above; details: 10 mg/L sublimed, three day treatment plus three days at 21° C.
# Protocol: as §1
# Botrytis cinerea [1] = test: as above; details: 10 mg/L sublimed, three day treatment plus three days at 21° C.
# Protocol: as §1
# Botrytis cinerea [2] = test: combination treatment with 1-MCP on white roses; format: in vivo; details: three day volatile treatment at 21° C.
# Protocol: To evaluate a combination treatment of Compound A with 1-methylcyclopropene (1-MCP), an in vivo experiment is performed on white roses.
# Five white roses are placed in an 800 mL jar containing 200 mL of a common commercial flower preservative. Three jars are then placed in a 117 L Rubbermaid storage box (Cat #2244). Two small fans are placed in opposite ends of the container to assist with the distribution of the two volatiles. A 500 parts per billion (ppb) volume per volume (v/v) 1-MCP treatment is applied (AgroFresh, Springhouse, Pa.) for 24 hours at 21° C. After the 1-MCP treatment is completed, the containers are vented, and Compound A powder is applied in a dose dependent manner to achieve a final headspace concentration of 0.2, 0.04, or 0.008 mg/L with a sublimation device (copper tube heated to 200° C. with fan flow at 0.5 L/min), with the end of the tube penetrating through a ½ inch side port in the container that is sealed immediately after the application. The flowers are incubated for three days at 21° C. After treatment, the flowers are evaluated for an additional seven days at 21° C. for disease incidence and severity of the flower petals.
# Botrytis cinerea [3] = test: in vivo dose by time volatile bioassay using strawberry; details: for Incidence (%) / Severity (0 to 3): strawberries
# Protocol: In order to assess the in vivo dose by time activity of volatile antimicrobial compounds, a volatile bioassay is developed using strawberry. Two fruit are placed inside a 240 mL jar, with the calyx facing downwards. […] Whatman filter paper (Cat. No. 1822-024) is placed inside duplicate jar lids. Compound A (benzoxaborole; FIG. 1) is diluted in acetone, and the appropriate amount of compound is added to the disks at two rates 0.008 or 0.125 mg. The acetone is permitted to evaporate for 5 minutes. The jars are capped with the lids containing the fungicide, and incubated with the volatile fungicide for 1, 3, 6, 24 or 72 hours. After incubation, lids containing the disk with Compound A are replaced with new lids without Compound A. All samples are maintained at 21° C. for 3 days, and then the lids are removed and maintained for an additional 48 hours, all at 90% relative humidity (R.H.). The fruit are evaluated for incidence and severity of disease and appearance of phytotoxicity.
smiles,measurement,setting,value
OB1OCc2cc(F)ccc21 [Compound A],Sporulation (mm),Penicillium digitatum,8.55 mm
same,Water soaked lesion,Penicillium digitatum,3.04 mm
same,Browning (mm),Penicillium expansum; Apple,5.4 mm
same,Sporulation (mm),Penicillium expansum; Apple,0 mm
same,Browning (mm),Penicillium expansum; Pear,2.7 mm
same,Sporulation (mm),Penicillium expansum; Pear,0 mm
same,Incidence (%),Botrytis cinerea [1]; Blueberry,5%
same,Severity (0-4),Botrytis cinerea [1]; Blueberry,0.03
same,Incidence (%),Botrytis cinerea [1]; Grape,26.7%
same,Severity (0-4),Botrytis cinerea [1]; Grape,0.1
same,Incidence (%),Botrytis cinerea [1]; Strawberry,18.8%
same,Severity (0-4),Botrytis cinerea [1]; Strawberry,0.09
same,Incidence (%),Botrytis cinerea [2]; 0.008 mg/L,20.0%
same,Severity (0-4),Botrytis cinerea [2]; 0.008 mg/L,0.2
same,Incidence (%),Botrytis cinerea [2]; 0.04 mg/L,20.0%
same,Severity (0-4),Botrytis cinerea [2]; 0.04 mg/L,0.03
same,Incidence (%),Botrytis cinerea [2]; 0.2 mg/L,0.0%
same,Severity (0-4),Botrytis cinerea [2]; 0.2 mg/L,0.0
same,Incidence (%),"Botrytis cinerea [3]; 0.008 mg/disk, Time 3 h",0%
same,Severity (0 to 3),"Botrytis cinerea [3]; 0.008 mg/disk, Time 3 h",0.0
same,Incidence (%),"Botrytis cinerea [3]; 0.008 mg/disk, Time 6 h",33%
same,Severity (0 to 3),"Botrytis cinerea [3]; 0.008 mg/disk, Time 6 h",1.0
same,Incidence (%),"Botrytis cinerea [3]; 0.008 mg/disk, Time 24 h",67%
same,Severity (0 to 3),"Botrytis cinerea [3]; 0.008 mg/disk, Time 24 h",2.3
same,Incidence (%),"Botrytis cinerea [3]; 0.008 mg/disk, Time 72 h",33%
same,Severity (0 to 3),"Botrytis cinerea [3]; 0.008 mg/disk, Time 72 h",1.0
same,Incidence (%),"Botrytis cinerea [3]; 0.125 mg/disk, Time 1 h",67%
same,Severity (0 to 3),"Botrytis cinerea [3]; 0.125 mg/disk, Time 1 h",2.3
same,Incidence (%),"Botrytis cinerea [3]; 0.125 mg/disk, Time 3 h",33%
same,Severity (0 to 3),"Botrytis cinerea [3]; 0.125 mg/disk, Time 3 h",1.3
same,Incidence (%),"Botrytis cinerea [3]; 0.125 mg/disk, Time 6 h",0%
same,Severity (0 to 3),"Botrytis cinerea [3]; 0.125 mg/disk, Time 6 h",0.0
same,Incidence (%),"Botrytis cinerea [3]; 0.125 mg/disk, Time 24 h",0%
same,Severity (0 to 3),"Botrytis cinerea [3]; 0.125 mg/disk, Time 24 h",0.0
same,Incidence (%),"Botrytis cinerea [3]; 0.125 mg/disk, Time 72 h",0%
same,Severity (0 to 3),"Botrytis cinerea [3]; 0.125 mg/disk, Time 72 h",0.0
same,control of Botrytis cinerea,"Botrytis cinerea [3]; strawberry, 0.125 mg/disk, after 6 hour exposure",100%
same,appearance of phytotoxicity,"Botrytis cinerea [3]; strawberry, 0.008 or 0.125 mg",no evidence of phytotoxicity
